Source: patent publication US12691124B2, “Methods of controlling and improving brain health” (ICAHN SCHOOL OF MEDICINE AT MOUNT SINAI, priority 2019, dated 2026)

How the values were obtained:
primary cortical neurons = assay: Hypoxia (1% O2) induced neuronal death; type: cell-based, mouse; conditions: 1% O2, 1 week pretreatment
Source text: While glutamate toxicity is a widely used and clinically relevant assay, there are other factors that contribute to neuronal death in vivo such as lack of oxygen which occurs after stroke or protein aggregates which are observed in many neurodegenerative disorders. To understand if the observed protective effect is specific to glutamate toxicity, neurons were exposed to either hypoxic (1% O2) environments or Aβ1-43 oligomers (FIGS. 10E and 10F).
IBET treatment protects neurons from neurotoxin-induced cell death (FIGS. 22C-22E). Dot plots show the percentage of cells that are propidium iodide negative after different neurotoxic insults when pre-treated with either control or iBET for 1 week. 6 hours and 24 hours after 1 mM glutamate exposure are shown in FIG. 22C; 18 hours, 24 hours, and 48 hours of hypoxia (1% O2) are shown in FIG. 22D; and 48 hours and 72 hours of Aβ1-43 oligomer exposure (10 μM) are shown in FIG. 22E. Two-way repeated measures ANOVA with multiple comparisons, n=3 per group, ***p<0.001. Experiments were repeated a minimum of three times.

BRD2 = target: T1, BRD2 (Mus musculus, UniProt Q7JJ13); assay: ChIP sequencing of BRD2 chromatin occupancy in neurons; type: cell-based
T1 construct: Primary cortical neurons express BRD2/3/4, with BRD2 and BRD4 being the most abundant; endogenous in cells; host or cells: primary cortical neuronal cultures (mouse)
T1 sequence (Q7JJ13 whole entry): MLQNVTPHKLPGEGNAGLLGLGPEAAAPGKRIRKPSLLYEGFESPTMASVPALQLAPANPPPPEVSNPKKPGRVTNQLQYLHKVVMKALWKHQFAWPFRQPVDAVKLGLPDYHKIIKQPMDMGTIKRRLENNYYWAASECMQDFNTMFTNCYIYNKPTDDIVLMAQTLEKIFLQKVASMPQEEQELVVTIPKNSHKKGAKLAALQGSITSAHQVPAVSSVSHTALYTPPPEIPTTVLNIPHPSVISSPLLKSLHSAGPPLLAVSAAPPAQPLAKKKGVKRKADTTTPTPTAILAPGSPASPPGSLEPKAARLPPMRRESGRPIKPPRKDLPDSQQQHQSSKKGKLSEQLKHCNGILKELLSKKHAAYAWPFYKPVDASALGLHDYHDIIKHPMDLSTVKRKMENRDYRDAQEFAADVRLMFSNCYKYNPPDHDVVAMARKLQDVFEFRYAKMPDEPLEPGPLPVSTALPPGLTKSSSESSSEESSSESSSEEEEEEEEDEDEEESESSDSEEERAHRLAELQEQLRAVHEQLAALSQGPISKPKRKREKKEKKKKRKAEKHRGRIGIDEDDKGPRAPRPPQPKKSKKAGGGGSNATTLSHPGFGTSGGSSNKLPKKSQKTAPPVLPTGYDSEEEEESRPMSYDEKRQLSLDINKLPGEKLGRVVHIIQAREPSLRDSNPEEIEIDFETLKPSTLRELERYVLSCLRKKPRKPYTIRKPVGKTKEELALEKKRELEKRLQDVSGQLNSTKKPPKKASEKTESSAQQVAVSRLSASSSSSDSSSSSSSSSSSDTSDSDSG
Experimental: Chromatin Immunoprecipitation with Sequencing. Primary cortical neuronal cultures were washed once with PBS then fixed for 10 minutes with a 1% formaldehyde solution in PBS with protease inhibitors (Sigma #P8340) at room temperature. Fixation was quenched adding glycine to a final concentration of 0.125M (5 minutes, room temperature). 10e6 fixed cells were resuspended in 1 ml of lysis buffer (50 mM Hepes KOH, pH7.5, 140 mM NaCl, 1 mM EDTA, 10% glycerol, 0.5% NP-40, 0.25% Triton X-100) and 10 ul of protease inhibitor cocktail (PIC). Samples were rotated for 10 minutes at 4 degrees then spun at 1350 g at 4 C for 10 minutes. Pellets were resuspended in 1 ml of lysis buffer 2 (10 mM Tris-HCl pH8.0, 200 mM NaCl, 1 mM EDTA, 0.5 mM EGTA) and 10 ul PIC.). 5e6 nuclei were sonicated in lysis buffer 3 (10 mM Tris-HCl pH8.0, 100 mM NaCl, 1 mM EDTA, 0.5 mM EGTA, 0.1% Na-Deoxicholate, 0.5% N-Lauroylsarcosine) at 4 degrees for 5 cycles of 30 seconds ON/30 seconds OFF using the Diagenode bioruptor. After, 30 ul of 10% Triton-X100 was added to each sample and then spun for 15 minutes at 20,000 g at 4 degrees. Sonication efficiency was checked by running the samples on a 2% agarose gel to confirm enrichment for fragments from 200-500 bps.
Streptavidin M-280 dynabeads were blocked with 0.5% BSA solution and coupled to 7 ug of antibody (Brd4 #Ab84778, Brd2 Bethyl #A302-583A, Pol2 Ser5 #Ab5408) for at least 8 hours at 4 degrees, rotating. Antibody-coupled beads were then added to sonicated chromatin (20e6 cells for Brd2/Brd4, 10e6 for Pol2) and incubated overnight at 4 degrees. After washing the IPs eight times with wash buffer (50 mM Hepes-KOH pH7.6, 100 mM LiCl, 1 mM EDTA, 1% NP-40, 0.7% Na-Deoxycholate) and once with TE buffer (10 mM Tris-HCl, 1 mM EDTA, 50 mM NaCl), Chromatin was eluted from magnetic beads in 200 ul elution buffer ([…] Tris-HCl pH8.0, 10 mM EDTA, 1% SDS) for 45 minutes at 65 degrees. Samples were de-crosslinked overnight at 65 degrees and proteins and RNA were removed by incubating with RNAse and proteinase k. Samples were purified using the Qiagen PCR purification kit according to the manufacturers protocol.
Samples were end-repaired using the End-IT DNA End-Repair Kit (#ER0720). After 45 minutes incubation, samples were purified using the Qiagen PCR Clean up kit as described above. Samples were adenylated using a reaction mix (200 uM dATP, 1× Klenow buffer NEB2, Klenow Fragment (3′ to 5′ exo-), NEB M0212L) and incubating at 37 degrees for 30 minutes. […] Raw sequencing reads were then aligned to the mouse mm9 genome using the default settings of Bowtie (v2.2.0)87. Only uniquely mapped reads were retained, and the alignments were subsequently filtered using the SAMtools package (v0.1.19)88 to remove duplicate reads. […]

## CC(=O)N1c2ccc(-c3ccc(CN4CCCCC4)cc3)cc2[C@H](Nc2ccccc2)CC1C (stereo in doubt) [IBET858]
Primary cortical neurons
  loss of neurons due to hypoxia: significantly prevents loss of neurons
BRD2; 6 h IBET858
  genes that lose BRD2 at the transcriptional start site: 1497 genes
  genes with gain of BRD2 at the transcriptional start site: 828 genes
BRD2; DIV7, 6 h IBET858
  loci with reduced occupancy of BRD2: 2099 loci
BRD2; day 7, 6 h IBET858
  loci with increased occupancy of BRD2: 1680 loci
